Assay results from patent publication US20080221134A1, “8-ALKYNYLXANTHINES AND DERIVATIVES” (priority 2006, published 2008).
“Also recorded” adds a separate entry of the source.

Legend:
[1] = tested on: rats; test: Modified Irwin test (FOB, SAC, FU); format: in vivo, rat; settings: 0.01-30 mg/kg
Text: In this study the compounds of the present invention were screened for basal behavioural, autonomic, neurological and toxicological side-effects in rats. For this purpose, a functional observational battery (FOB) in form of an Irwin test (Irwin S., Psychopharmacologia, 1968, 13, 222; 1968; Warburton D. M. Psychopharmacology, 2002, 163, 4; Haggerty G. C. et al., J. Amer. Coll. Toxicol., 1991, 10, 677; Mattsson J. L. et al., J. Amer. Coll. Toxicol., 1996, 15, 239, all references are herein incorporated by reference) modified and validated by the Test Facility was used. Each test compound was tested at eight doses (0.01, 0.03, 0.1, 0.3, 1.0, 3.0, 10.0 and 30.0 mg/kg). All compounds were dissolved in DMSO (administration volume 1 ml/kg). Each dose group included three animals. Two vehicle groups (DMSO and Labrasol) served as negative controls.
At the first day of each test week all test compound solutions necessary for the test (1-2 weeks) were prepared by means of one dilution series starting with the highest concentration. All test compounds dissolved in DMSO were administered in a volume of 1 ml/kg. DMSO-containing solutions were stored at −18° C. All solutions were melted for administration at room temperature 16-20 hours before the start of the test.
Study design and time schedule:
4-7 days: Acclimatization and handling of the animals 1 day: Test day with • (a) Four repeated functional observational battery (FOB): 30 min, 60 min, 120 min, 180 min following compound administration • (b) Short animal check (SAC): 300 min following compound administration 1 day: Follow-up observation (FU): • 24 h (1440 min) following compound administration.
In all experimental parts, an experienced ethologist used lists of predefined methods and behavioural parameters in order to rate the behaviour of the animal (see table 7 for functional observational battery (FOB), table 8 for short animal check (SAC) and table 9 for follow-up observation (FU).
A statistical evaluation of the data was performed that enabled an assessment of the compound's effects on each parameter. Dose-response relationships are not necessarily linear. It was not clear a priori whether the response would be dose-dependent or whether low, medium or high dose effects would occur. Therefore, the data were correlated against a set of different numeric models of theoretical dose-response curves. For this kind of evaluation the measurement times were not differentiated. An average value over all measurement times was calculated for each animal. This value was taken as one measurement within the observation vector. The complete set of parameters measured for the animal (each one averaged over time) formed the observation vector. Each dose was then represented by three observation vectors (3 animals per dose). The effects of all doses were compared with vehicle (DMSO) as the observation vectors for the zero dose. A common pool of 24 animals for the zero dose was used for all compounds to be tested. For each test compound the obtained values for each parameter together with values from the pool of vehicle-treated (DMSO) animals were then correlated with theoretical dose-response models (analysis profiles). Since 8 doses were be used, there were 8 models, each assuming that the maximum compound effect occurred at one of these doses. Effects of other doses were assumed to be attenuated with a linearly descending slope of the theoretical curve. Correlation values and statistical significance of regression were then calculated. An error probability of p<0.05 (two-tailed testing) was taken as significance level. Non-significant regressions were neglected. In consequence, each parameter was assessed as not affected or affected by the compound in a dose-response relationship according to type 1 (low dose effect) up to type 8 (high dose effect). Dose response is maximal for the effect with the greatest absolute correlation coefficient. […]

[2] = tested on: haloperidol induced model of Parkinson's Disease; test: Haloperidol induced model of Parkinson's Disease; settings: in vivo

Row | SMILES | activity in the Irwin Test (hyperlocomotion) [1] | effect in haloperidol induced model of Parkinson's Disease [2]
1 | C#CCn1c(=O)c2c(nc(C#Cc3ccc(OC)c(OC)c3)n2C)n(CC)c1=O [test compound 1, 3-ethyl-8-(3,4-dimethoxyphenylethynyl)-7-methyl-1-prop-2-ynyl-3,7-dihydropurine-2,6-dione] | potent hyperlocomotion | effective; also recorded: significant effects
2 | C#CCn1c(=O)c2c(nc(C#Cc3ccc(OC)c(OC)c3)n2C)n(CCCO)c1=O [test compound 2, 3-(3-hydroxypropyl)-8-(3,4-dimethoxyphenylethynyl)-7-methyl-1-prop-2-ynyl-3,7-dihydropurine-2,6-dione] | potent hyperlocomotion | 
